In US10071976B2, “Small molecule fatty acid synthase inhibitors” (Sanford Burnham Prebys Medical Discovery Institute, priority 2014, dated 2018):
“And” between values parts separate entries of the source, which are not always exact repeats. Identical values can stand only once.

Legend:
[1] = molecular target: T1, FASN-TE (Homo sapiens, UniProt P49327); experiment: In-vitro biochemical assay measuring FAS-TE inhibition (OMFH substrate, fluorescence)
Method: Min wells: Substrate+No enzyme+DMSO, Max wells: Substrate+Enzyme+DMSO, Sample wells: Substrate+Enzyme+Test compounds, Reference compound: Orlistat (make a fresh 10 mM stock in DMSO each time). 384-well black, low-volume plate (Greiner #784076)
Assay Protocol: • 1) ECHO transfer 160 nL of 125× Compound (or DMSO for control wells) per well. • 2) For Max and Sample wells: Add 10 μL of Enzyme (2×; 1.8 μM) prepared in RXN Buffer. For Min wells: Add 10 μL of RXN Buffer (No Enzyme). • 3) For all wells: Add 10 μL of Substrate (2×; 20 μM) prepared in diH2O+10% DMSO. • 4) Centrifuge plate for 1 minute at 1,000 rpm. • 5) Measure fluorescence every 5 minutes for 1-1.5 hours using the BMG POLARstar (ex 485 nm/em 520 nm; Gain=1015; 25 flashes). • 6) All volumes can be adjusted but the final DMSO concentration should be kept at about 6%.
Data Analysis: • 1) Calculate slopes and express as % Activity (Min wells=0%; Max wells=100%). • 2) Then, using Prism, calculate the IC50 values.

[2] = molecular target: T2, FASN (Homo sapiens, UniProt P49327); experiment: Competition with activity-based probe FP-PEG-TAMRA in PC-3 whole cell lysate: FASN; assay type: binding; settings: PC-3 lysate, 20 μM final, pH 7.8
T2 construct: lysates of the prostate tumor line (PC3), which expresses FASN; endogenous in cells; host or cells: PC-3 prostate tumour cells (whole cell lysate)
Method: Studies were conducted to determine the selectivity of compound 16 for FASN over other human thioesterases. The ability of the compounds to bind the FASN holoenzyme was tested by assessing their ability to compete for the binding of an activity-based probe that covalently attaches to the active site of the FASN thioesterase. Thioesterases are members of the serine hydrolase family, which also includes a number of other types of enzymes including proteases, dipeptidyl peptidases, epoxide hydrolases, etc. To help assess the selectivity of compound 16, an activity-based probe polyethyleneglycol-6-carboxytetramethyl-rhodamine (FP-PEG-TAMRA) that binds covalently to the catalytic serine of all serine hydrolases was used. These studies were done by assessing the ability of compound 16 to compete for the binding of the activity-based probe in whole cell lysates. Several analogs of compound 16 were tested in this assay using lysates of the prostate tumor line (PC3), which expresses FASN, along with numerous other serine hydrolases. The PC-3 lysate was incubated with 8 different FASN inhibitors, including compounds 1, 16 and 97. Then the activity-based probe (FP-PEG-TAMRA) was added to each sample to label the serine hydrolases in the lysate.

[3] = test system: prostate cancer PC-3 cells; experiment: De novo palmitate synthesis from 13C-glucose in whole cells (GC-MS); assay type: cell-based; settings: for de novo palmitate synthesis/DMSO (%): 20 μM, [U-13C]-glucose 24 h, pH 7.8, relative to DMSO control
Method: The ability of compounds to block biosynthesis of palmitate in whole cells (prostate cancer PC-3 cells) was measured by feeding cells isotopically labeled glucose (^13C-glucose) and measuring the incorporation of ^13C into palmitate by GC-MS.
Prostate cancer PC-3 cell were incubated with 20 μM of FASN inhibitors and labeled with [U-13C]-glucose for 24 h, pH 7.8. The incorporation of ^13C into palmitate from labeled glucose was determined by extracting fatty acids and resolving them by GC-MS. The mass distributions for fatty acid methyl esters for C16:0 (palmitate) were corrected for isotope natural abundance, and the corrected isotope patterns were used to calculate the labeling of acetyl-CoA in palmitate based on a binomial probability distribution of the incorporation of labeled acetyl units into the fatty acid chain.

[4] = molecular target: T3, FASN thioesterase (Homo sapiens, UniProt P49327); experiment: FP-PEG-TAMRA labeling of recombinant FASN thioesterase; assay type: binding; settings: recombinant enzyme, 20 μM final, pH 7.8
T3 construct: label the active site of the FASN thioesterase and ACOT4
Method: (§1) Additionally, studies were performed to test the selectivity of Compounds 1, 16, 22, and 37 for the FASN thioesterase over its most closely related human homolog, the enzyme called ACOT4 (see FIG. 3). Both proteins were mixed and pretreated with the compound (20 μM final, pH 7.8) before addition of the fluorescent activity probe FP-PEG-TAMRA. Respective fluorescence of the bands was detected on a Hitachi flatbed scanner and a greyscale version used for quantitative analysis using ImageJ. Recombinant forms of each enzyme were incubated with compound 16, compound 1, compound 37, and compound 22. FP-TAMRA was included in this mixture to label the active site of the FASN thioesterase and ACOT4. […] These findings further attest to the high degree of selectivity of compounds 1, 16, 37 and 22 for the FASN thioesterase.

[5] = molecular target: T4, ACOT4 (Homo sapiens, UniProt Q8N9L9); experiment: FP-PEG-TAMRA labeling of recombinant ACOT4; assay type: binding; settings: recombinant enzyme, 20 μM final, pH 7.8
T4 sequence (Q8N9L9 1-421): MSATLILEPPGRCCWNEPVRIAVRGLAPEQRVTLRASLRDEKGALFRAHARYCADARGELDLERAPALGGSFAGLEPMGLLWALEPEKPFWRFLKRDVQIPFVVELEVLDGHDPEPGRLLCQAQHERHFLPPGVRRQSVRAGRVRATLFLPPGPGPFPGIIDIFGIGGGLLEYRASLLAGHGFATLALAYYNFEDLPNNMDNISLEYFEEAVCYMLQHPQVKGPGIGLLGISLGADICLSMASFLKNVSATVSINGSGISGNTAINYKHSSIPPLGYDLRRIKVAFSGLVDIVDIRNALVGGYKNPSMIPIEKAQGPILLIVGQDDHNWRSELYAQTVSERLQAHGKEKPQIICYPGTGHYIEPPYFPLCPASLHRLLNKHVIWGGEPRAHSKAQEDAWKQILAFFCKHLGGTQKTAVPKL
Method: as §1

[6] = test system: chymotrypsin; experiment: Reaction Biology protease panel: chymotrypsin; assay type: biochemical; settings: read-out: chymotrypsin inhibition (IC50)
Method: (§2) To further evaluate selectivity and identify any off-target effects, compound 37 was tested against a commercial panel of 34 binding assays (enzymes, receptors & ion channels) through Eurofins Panlabs. […] Compound 37 was also tested in a commercial panel of 17 diverse proteases (Reaction Biology).

[7] = test system: 17 diverse proteases; experiment: Commercial panel of 17 diverse proteases (Reaction Biology); assay type: biochemical; settings: up to 100 μM
Method: as §2

[8] = molecular target: T1, FASN-TE; experiment: Eadie-Hofstee enzymology analysis; assay type: biochemical
Method: Furthermore, using a classical enzymology analysis (Eadie-Hofstee) compound 37 was determined to have a non-competitive mode of inhibition (see FIG. 2).

[9] = molecular target: T5, CYP450 2C19 (Homo sapiens, UniProt P33261); experiment: Eurofins Panlabs binding panel: CYP450 2C19; settings: 10 μM
T5 construct: purchased Eurofins Panlabs
Method: as §2

[10] = Pharmacokinetic study, IP dosing; assay type: in vivo; settings: mice, 10 mg/kg IP
Method: A pharmacokinetic (PK) study of Compound 37 dosed systemically (IP) in mice was conducted. At 10 mg/kg (IP) compound 37 attained plasma levels post dosing of >3 μM up to 30 min., >2 μM up to 1 h, and >1 μM up to 2 h.

[11] = test system: sodium channel; experiment: Eurofins Panlabs binding panel: sodium channel; settings: 10 μM
Method: as §2

[12] = test system: enzymes, receptors & ion channels; experiment: Commercial panel of 34 binding assays (Eurofins Panlabs); settings: 10 μM
Method: as §2

T3 sequence (P49327 2207-2511 limits assumed): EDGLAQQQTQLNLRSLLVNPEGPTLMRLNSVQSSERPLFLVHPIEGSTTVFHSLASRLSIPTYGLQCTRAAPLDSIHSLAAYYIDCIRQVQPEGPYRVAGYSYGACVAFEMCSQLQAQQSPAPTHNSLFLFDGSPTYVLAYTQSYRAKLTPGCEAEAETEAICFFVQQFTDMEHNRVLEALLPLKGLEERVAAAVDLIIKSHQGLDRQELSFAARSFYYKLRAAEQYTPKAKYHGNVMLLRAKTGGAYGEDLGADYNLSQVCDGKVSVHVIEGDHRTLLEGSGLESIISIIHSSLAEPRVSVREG
T1 sequence (P49327 2207-2511 limits assumed): as above
T2 sequence (P49327 whole entry): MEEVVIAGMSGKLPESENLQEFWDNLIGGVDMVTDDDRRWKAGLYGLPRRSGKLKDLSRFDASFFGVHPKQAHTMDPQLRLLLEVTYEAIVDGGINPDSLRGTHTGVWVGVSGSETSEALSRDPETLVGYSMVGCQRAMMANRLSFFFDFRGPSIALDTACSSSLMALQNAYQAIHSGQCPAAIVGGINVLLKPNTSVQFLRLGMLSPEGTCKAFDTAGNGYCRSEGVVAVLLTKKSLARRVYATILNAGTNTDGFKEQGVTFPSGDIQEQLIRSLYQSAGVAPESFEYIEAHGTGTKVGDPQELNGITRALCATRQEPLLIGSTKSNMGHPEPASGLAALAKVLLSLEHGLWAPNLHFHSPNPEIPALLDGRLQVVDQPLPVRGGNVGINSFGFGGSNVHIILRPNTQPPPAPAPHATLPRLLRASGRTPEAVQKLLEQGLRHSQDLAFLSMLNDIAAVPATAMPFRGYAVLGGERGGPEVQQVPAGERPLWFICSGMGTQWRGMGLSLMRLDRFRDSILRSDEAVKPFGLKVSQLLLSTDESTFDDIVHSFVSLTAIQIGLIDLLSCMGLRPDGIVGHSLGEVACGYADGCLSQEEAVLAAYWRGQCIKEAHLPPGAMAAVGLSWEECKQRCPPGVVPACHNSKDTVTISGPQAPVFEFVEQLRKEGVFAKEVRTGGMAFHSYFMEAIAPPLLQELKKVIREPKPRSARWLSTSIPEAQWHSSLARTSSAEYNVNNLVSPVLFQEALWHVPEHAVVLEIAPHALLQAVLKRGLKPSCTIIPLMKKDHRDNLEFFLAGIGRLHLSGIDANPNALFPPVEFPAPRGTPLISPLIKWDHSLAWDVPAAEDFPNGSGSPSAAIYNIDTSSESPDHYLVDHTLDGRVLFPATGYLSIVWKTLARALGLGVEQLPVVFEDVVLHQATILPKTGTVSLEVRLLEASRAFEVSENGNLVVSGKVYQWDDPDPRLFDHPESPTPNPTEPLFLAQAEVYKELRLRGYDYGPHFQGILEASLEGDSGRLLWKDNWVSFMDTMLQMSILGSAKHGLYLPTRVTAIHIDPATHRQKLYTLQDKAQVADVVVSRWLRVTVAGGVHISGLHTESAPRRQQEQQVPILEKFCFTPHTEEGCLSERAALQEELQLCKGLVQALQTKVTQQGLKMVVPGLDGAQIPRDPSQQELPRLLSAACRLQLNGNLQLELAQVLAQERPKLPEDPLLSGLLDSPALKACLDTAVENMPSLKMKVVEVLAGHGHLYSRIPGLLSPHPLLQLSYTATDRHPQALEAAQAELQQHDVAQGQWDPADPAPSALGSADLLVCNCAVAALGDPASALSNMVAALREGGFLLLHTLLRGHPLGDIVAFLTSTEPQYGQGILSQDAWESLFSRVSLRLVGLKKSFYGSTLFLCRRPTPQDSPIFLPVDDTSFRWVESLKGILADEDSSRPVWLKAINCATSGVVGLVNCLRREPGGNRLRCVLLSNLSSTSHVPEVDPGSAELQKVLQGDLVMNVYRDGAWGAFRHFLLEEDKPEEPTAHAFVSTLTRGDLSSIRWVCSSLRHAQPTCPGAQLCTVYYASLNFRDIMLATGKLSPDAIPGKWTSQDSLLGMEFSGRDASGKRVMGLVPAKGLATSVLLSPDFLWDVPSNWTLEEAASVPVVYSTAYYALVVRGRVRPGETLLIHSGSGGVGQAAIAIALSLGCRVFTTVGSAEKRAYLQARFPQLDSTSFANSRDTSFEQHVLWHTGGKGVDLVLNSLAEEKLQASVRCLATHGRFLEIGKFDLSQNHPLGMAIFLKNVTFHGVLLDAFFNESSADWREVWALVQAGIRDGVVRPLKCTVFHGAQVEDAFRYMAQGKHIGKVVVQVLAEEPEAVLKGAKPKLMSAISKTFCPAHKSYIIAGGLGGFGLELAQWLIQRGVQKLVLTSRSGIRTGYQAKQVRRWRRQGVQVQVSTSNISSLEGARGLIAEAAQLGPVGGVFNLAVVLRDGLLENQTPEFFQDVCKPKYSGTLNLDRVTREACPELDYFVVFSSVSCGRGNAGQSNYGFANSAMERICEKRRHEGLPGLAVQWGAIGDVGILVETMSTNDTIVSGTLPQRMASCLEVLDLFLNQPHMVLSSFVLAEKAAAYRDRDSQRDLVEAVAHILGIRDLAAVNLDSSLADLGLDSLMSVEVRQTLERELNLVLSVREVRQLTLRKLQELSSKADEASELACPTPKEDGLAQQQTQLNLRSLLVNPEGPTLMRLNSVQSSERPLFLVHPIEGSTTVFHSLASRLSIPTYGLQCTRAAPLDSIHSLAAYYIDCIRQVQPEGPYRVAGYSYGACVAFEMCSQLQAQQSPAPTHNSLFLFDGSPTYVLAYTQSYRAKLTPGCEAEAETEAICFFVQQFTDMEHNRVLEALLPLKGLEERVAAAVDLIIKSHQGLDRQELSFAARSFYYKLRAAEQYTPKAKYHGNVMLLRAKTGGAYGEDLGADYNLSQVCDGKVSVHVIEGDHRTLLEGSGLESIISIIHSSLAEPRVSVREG
T5 sequence (P33261 whole entry): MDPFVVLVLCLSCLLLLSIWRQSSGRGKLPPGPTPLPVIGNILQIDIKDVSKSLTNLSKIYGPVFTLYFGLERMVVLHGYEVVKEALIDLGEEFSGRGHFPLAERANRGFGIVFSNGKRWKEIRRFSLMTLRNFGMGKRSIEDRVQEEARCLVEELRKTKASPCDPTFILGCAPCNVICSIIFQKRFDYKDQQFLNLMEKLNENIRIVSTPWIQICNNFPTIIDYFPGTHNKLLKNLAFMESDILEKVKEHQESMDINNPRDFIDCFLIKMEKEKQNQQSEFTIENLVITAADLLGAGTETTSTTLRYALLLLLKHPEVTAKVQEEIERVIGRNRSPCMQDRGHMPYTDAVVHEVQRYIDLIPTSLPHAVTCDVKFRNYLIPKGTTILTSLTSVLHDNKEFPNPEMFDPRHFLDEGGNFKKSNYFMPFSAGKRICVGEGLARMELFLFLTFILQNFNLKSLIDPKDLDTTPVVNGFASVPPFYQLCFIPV

## Cc1ccc(NC(=O)Cc2nc(-c3ccc(S(=O)(=O)N4CCOCC4)cc3)cs2)cc1 [Compound 97]
[1]
  IC50: ≥ 80 µM
[1]; negative control
  activity in the enzyme-based assay: no activity
[2]
  inhibition of FASN (blocking of FP-TAMRA binding): did not
[3]
  inhibition of palmitate synthesis in whole cells: did not inhibit palmitate synthesis
  de novo palmitate synthesis/DMSO (%): 95%

## CCCCC(=O)Nc1nc(-c2ccc(S(=O)(=O)N3CCC(C)CC3)cc2)cs1 [Compound 22]
[1]
  IC50: 0.501 µM
[4]
  binding of FP-TAMRA to the active site of the FASN thioesterase: blocked the binding of FP-TAMRA
[5]
  activity labeling of ACOT4: without effect

## CCN(CC)S(=O)(=O)c1ccc(-c2csc(Cc3cccc(C(F)(F)F)c3)n2)cc1 [Compound 108]
[1]
  IC50: ≥ 80 µM

## CCN(CC)S(=O)(=O)c1ccc(-c2csc(-c3ccc(Cl)cc3)n2)cc1 [Compound 104]
[1]
  IC50: ≥ 80 µM

## CCCCC(=O)Nc1nc(-c2ccc(S(=O)(=O)N(CC)CC)cc2)cs1 [Compound 32]
[1]
  IC50: 0.172 µM

## O=C(Nc1nc(-c2ccc(S(=O)(=O)N3CCCC3)cc2)cs1)c1ccco1 [Compound 4]
[1]
  IC50: 4.68 µM

## CCN(CC)S(=O)(=O)c1ccc(-c2csc(NC(=O)C3CCCCC3)n2)cc1 [Compound 38]
[1]
  IC50: 2.9 µM

## CN(C)S(=O)(=O)c1ccc(-c2csc(NC(=O)C3CCC3)n2)cc1 [Compound 42]
[1]
  IC50: 1.4 µM

## CCC(=O)Nc1nc(-c2ccc(S(=O)(=O)N3CCCC3)cc2)cs1 [Compound 26]
[1]
  IC50: 0.65 µM

## O=C(Nc1nc(-c2ccc(S(=O)(=O)N3CCOCC3)cc2)cs1)C1CCCCC1 [Compound 20]
[1]
  IC50: > 80 µM

## CCc1nc(-c2ccc(S(=O)(=O)N(CC)CC)cc2)cs1 [Compound 100]
[1]
  IC50: ≥ 80 µM

## CCCC(=O)Nc1nc(-c2ccc(S(=O)(=O)N3CCCCC3C)cc2)cs1 (stereo not shown) [Compound 46]
[1]
  IC50: 0.58 µM

## CCCCC(=O)Nc1nc(-c2ccc(S(=O)(=O)N3CCOCC3)cc2)cs1 [Compound 1]
[1]
  IC50: 0.199 µM and 0.204 µM and 0.555 µM
[4]
  binding of FP-TAMRA to the active site of the FASN thioesterase: blocked the binding of FP-TAMRA
[2]
  inhibition of FASN (blocking of FP-TAMRA binding): showed inhibition of FASN
[3]
  inhibition of palmitate synthesis in whole cells: inhibitory activity
  de novo palmitate synthesis/DMSO (%): 40%
[5]
  activity labeling of ACOT4: without effect

## CCC(C)C(=O)Nc1nc(-c2ccc(S(=O)(=O)N(CC)CC)cc2)cs1 (stereo not shown) [Compound 37]
[1]
  IC50: 0.3 µM
[6]
  IC50: 1.7 µM
[4]
  binding of FP-TAMRA to the active site of the FASN thioesterase: blocked the binding of FP-TAMRA
[7]
  interactions in panel of 17 proteases: Only one interaction
[3]
  inhibition of palmitate synthesis in whole cells: dose-dependently inhibits palmitate synthesis
[8]
  mode of inhibition: non-competitive
[9]
  binding interaction: 50%
[5]
  activity labeling of ACOT4: without effect
[10]; up to 30 min
  plasma levels post dosing: > 3 µM
[10]; up to 1 h
  plasma levels post dosing: > 2 µM
[10]; up to 2 h
  plasma levels post dosing: > 1 µM
[11]
  binding interaction: 74%
[12]
  binding interactions >50% in panel of 34 binding assays: Only two binding interactions>50%
